Laboratory results reported in PMC5077133, “Towards Development of Small Molecule Lipid II Inhibitors as Novel Antibiotics” (PLoS ONE, 2016).

What was measured:
[1] = Lipid II binding by Surface Plasmon Resonance; details: SPR, immobilized 3-Lipid II, 25°C
Protocol: Short-chain water-soluble Lipid II containing a lipid tail of three isoprene units was generated and purified essentially as described. Typically, M. flavus vesicles (120 μmol lipid-Pi) were incubated together with 500 μmol UDP-GlcNAc, 500 μmol UDP-MurNAC-pentapeptide and 400 μmol farnesyl phosphate in 100 mM Tris-HCl pH 8.0, 5 mM MgCl2. The incubation lasted two hours at room temperature for 3-P. The synthesis of 3-Lipid II was followed using RP-8 reversed phase TLC (Merck) developed in 75% methanol. For purification, the membranes were removed by centrifugation at 40,000 x g and the supernatant was collected and loaded on a C18 HPLC column and eluted with a linear gradient from 50 mM ammonium bicarbonate to 100% methanol in 30 minutes. Farnesyl-Lipid II (3-Lipid II) eluted at approximately 60% methanol. Its identity was confirmed by mass spectroscopy. Surface Plasmon Resonance binding experiments were carried out on a BIAcore T100 system (BIAcore Inc., Piscataway, NY) at 25°C. The assay buffer was 10 mM HEPES, 150 mM NaCl, 0.05% surfactant P20, pH 7.4 (± 3 mM EDTA) supplemented with 10% DMSO. 3-Lipid II (50 RUs) was immobilized on CM5 sensor chips using the amine-coupling chemistry recommended by the manufacturer. For initial determination of binding, compounds were introduced into the flow-cells (30 μl/min) in the running buffer at 10 μM. Resonance signals were corrected for nonspecific binding by subtracting the background of the control flow-cell. After each analysis, the sensor chip surfaces were regenerated with 50 mM NaOH for 30 s at a flow rate 100 μl/min, and equilibrated with the buffer prior to next injection. For binding kinetics studies, binding isotherms were analyzed with manufacturer-supplied software for BIAcore T100.

[2] = system: A. baumanii ATCC 19606; experiment: Antibacterial activity (MIC, broth dilution); format: cell-based, Acinetobacter baumanii; details: CLSI, in µg/mL
Text: Staphylococcus aureus ATCC 29213, Escherichia coli ATCC 25922, Enterococcus faecalis ATCC 29212, Streptococcus pneumonia ATCC 49619 and Acinetobacter baumanii ATCC 19606 were obtained from Microbiologics (St. Cloud, MN). E. faecalis ATCC 51575, ATCC 51299 and REMEL C99707 and E. faecium ATCC 51559 (MDR), REMEL IH79985 and REMEL C110914 were generously provided by the Laboratory of Pathology, University of Maryland Baltimore School of Medicine. Unless stated otherwise, chemicals and reagents were purchased from Sigma.
(§1) Determination of the Minimal Inhibitory Concentrations (MIC) by dilution was carried out by broth dilution according to CLSI standards.

[3] = system: HeLa cells; experiment: Cytotoxicity against mammalian cells (MTS assay); format: cell-based
Protocol: The cytotoxicity concentration of antibacterial compounds that produces half maximal decrease in viability (CC50) against mammalian cells (HeLa, ATCC CCL-2.2) was determined as described. The effect of compounds on HeLa cell viability was assessed in triplicate by measuring the mitochondrial activity using MTS assays according to the manufacturer’s instructions (Cell Titer 96 proliferation assay, Promega). The cells were incubated for 72 hours in RPMI1640 medium containing the compounds at final concentrations ranging from 64 to 0.125 μg/ml. CC50 was determined using a standard curve of serially diluted untreated cells in each experiment.

[4] = system: E. faecium F118 (VRE); experiment: Antibacterial activity (MIC, broth dilution); format: cell-based; details: CLSI, in µg/mL
Protocol: as §1

[5] = system: P. aeruginosa PA01; experiment: Antibacterial activity (MIC, broth dilution); format: cell-based; details: CLSI
Protocol: as §1

[6] = system: E. cloacae ATCC 13047; experiment: Antibacterial activity (MIC, broth dilution); format: cell-based; details: CLSI
Protocol: as §1

[7] = system: P. aeruginosa ATCC 27853; experiment: Antibacterial activity (MIC, broth dilution); format: cell-based; details: CLSI
Protocol: as §1

[8] = system: P. aeruginosa X13273; experiment: Antibacterial activity (MIC, broth dilution); format: cell-based; details: CLSI, in µg/mL
Protocol: as §1

[9] = system: S. aureus HFH-30123 (MRSA); experiment: Antibacterial activity (MIC, broth dilution); format: cell-based; details: CLSI
Protocol: as §1

[10] = system: K. pneumoniae NR-15411 (KPC); experiment: Antibacterial activity (MIC, broth dilution); format: cell-based; details: CLSI
Protocol: as §1

[11] = system: E. aerogenes ATCC 13048; experiment: Antibacterial activity (MIC, broth dilution); format: cell-based; details: CLSI
Protocol: as §1

[12] = system: S. aureus MRSA 1094; experiment: Antibacterial activity (MIC, broth dilution); format: cell-based; details: CLSI
Protocol: as §1

[13] = system: E. faecium EF1509 (VRE); experiment: Antibacterial activity (MIC, broth dilution); format: cell-based; details: CLSI, in µg/mL
Protocol: as §1

[14] = system: K. pneumoniae NR-15410 (KPC); experiment: Antibacterial activity (MIC, broth dilution); format: cell-based; details: CLSI
Protocol: as §1

Row | Compound | Kd [1] [µM] | Antibacterial activity (MIC) A. baumanii ATCC 19606 [2] | Antibacterial activity (MIC) E. faecium F118 (VRE) [4] | Antibacterial activity (MIC) P. aeruginosa PA01 [5] [µg/mL] | Antibacterial activity (MIC) E. cloacae ATCC 13047 [6] [µg/mL] | Antibacterial activity (MIC) P. aeruginosa ATCC 27853 [7] [µg/mL] | Antibacterial activity (MIC) P. aeruginosa X13273 [8] | Antibacterial activity (MIC) S. aureus HFH-30123 (MRSA) [9] [µg/mL] | Antibacterial activity (MIC) K. pneumoniae NR-15411 (KPC) [10] [µg/mL] | Antibacterial activity (MIC) E. aerogenes ATCC 13048 [11] [µg/mL] | Antibacterial activity (MIC) S. aureus MRSA 1094 [12] [µg/mL] | Antibacterial activity (MIC) E. faecium EF1509 (VRE) [13] | Antibacterial activity (MIC) K. pneumoniae NR-15410 (KPC) [14] [µg/mL] | Lipid II binding Kd [1] | CC50% (72 h HeLa cells) [3]
1 | CN(C)c1ccc(/C=C/c2cc(-c3ccc(Cl)cc3)cc(-c3ccc(Cl)cc3)[o+]2)cc1.F[B-](F)(F)F [6jc41-1] | 34 ± 4 | >=64 | 8 | ≥ 64 | ≥ 64 | ≥ 64 | >=64 | 32 | ≥ 64 | ≥ 64 | 16 | 22.63 | ≥ 64 |  | >32
2 | Cn1cc(/C=C/c2cc(-c3ccc(C(C)(C)C)cc3)cc(-c3ccc(C(C)(C)C)cc3)[o+]2)c2ccccc21.F[B-](F)(F)F [6jc66-3] | 60 ± 11 | >=64 | 11.31 | ≥ 64 | ≥ 64 | ≥ 64 | >=64 | 8 | ≥ 64 | ≥ 64 | 8 | 4 | ≥ 64 |  | 5.68
3 | Brc1ccc(-c2cc(/C=C/c3cc4c5c(c3)CCCN5CCC4)[o+]c(-c3ccc(Br)cc3)c2)cc1.F[B-](F)(F)F [6jc-69-5] | 32.7 ± 2 | >=64 | 11.31 | ≥ 64 | ≥ 64 | ≥ 64 | >=64 | 64 | ≥ 64 | ≥ 64 | ≥ 64 | 6 | ≥ 64 |  | 4.43
4 | Cc1cc(/C=C/c2ccc(N(C)C)cc2)cc(C)[o+]1.F[B-](F)(F)F [6jc37] |  | >=64 | 64 | ≥ 64 | ≥ 64 | ≥ 64 | >=64 | 16 | ≥ 64 | ≥ 64 | 16 | 64 | ≥ 64 | No | 18.96
5 | CN(C)c1ccc(/C=C/c2cc(-c3ccc(C(C)(C)C)cc3)cc(-c3ccc(C(C)(C)C)cc3)[o+]2)cc1.F[B-](F)(F)F [6jc-60-1] | 37.9 ± 4 | >=64 | 8 | ≥ 64 | ≥ 64 | ≥ 64 | >=64 | 8 | ≥ 64 | ≥ 64 | 8 | 8 | ≥ 64 |  | <.78125

Now from value to compound, other results behind:

Row | Kd [1] [µM] | Antibacterial activity (MIC) A. baumanii ATCC 19606 [2] | Antibacterial activity (MIC) E. faecium F118 (VRE) [4] | Antibacterial activity (MIC) P. aeruginosa PA01 [5] [µg/mL] | Antibacterial activity (MIC) E. cloacae ATCC 13047 [6] [µg/mL] | Antibacterial activity (MIC) P. aeruginosa ATCC 27853 [7] [µg/mL] | Antibacterial activity (MIC) P. aeruginosa X13273 [8] | Antibacterial activity (MIC) S. aureus HFH-30123 (MRSA) [9] [µg/mL] | Antibacterial activity (MIC) K. pneumoniae NR-15411 (KPC) [10] [µg/mL] | Antibacterial activity (MIC) E. aerogenes ATCC 13048 [11] [µg/mL] | Antibacterial activity (MIC) S. aureus MRSA 1094 [12] [µg/mL] | Antibacterial activity (MIC) E. faecium EF1509 (VRE) [13] | Antibacterial activity (MIC) K. pneumoniae NR-15410 (KPC) [14] [µg/mL] | Lipid II binding Kd [1] | Compound | CC50% (72 h HeLa cells) [3]
6 | 2.17 ± 0.2 | 11.31 | 4 | 64 | 64 | 64 | 64 | 2 | ≥ 64 | 32 | 2.83 | 2 | 64 |  | Cc1ccc(-c2cc(/C=C/c3cc4c5c(c3)CCCN5CCC4)[o+]c(-c3ccc(C)cc3)c2)cc1.F[B-](F)(F)F [6jc65-1] | <.78125
7 | 17 ± 4 | 8 | 4 | 64 | 64 | 64 | 32 | 2 | 64 | 32 | 1.41 | 4 | 45.3 |  | C(=C\c1cc(-c2ccccc2)cc(-c2ccccc2)[o+]1)/c1cc2c3c(c1)CCCN3CCC2.F[B-](F)(F)F [6jc-58] | <.78125
8 | 1.9 ± 0.3 | >=64 | 4 | ≥ 64 | ≥ 64 | ≥ 64 | >=64 | 2 | ≥ 64 | ≥ 64 | 2 | 4 | ≥ 64 |  | Cc1ccc(-c2cc(/C=C/c3ccc(N(C)C)cc3)[o+]c(-c3ccc(C)c(C)c3)c2)cc1C.F[B-](F)(F)F [6jc-59-1] | <.78125
9 | 1.6 ± 0.2 | 64 | 5.66 | ≥ 64 | ≥ 64 | ≥ 64 | >=64 | 4 | ≥ 64 | ≥ 64 | 4 | 4 | 64 |  | CCc1ccc(-c2cc(/C=C/c3cn(C)c4ccccc34)[o+]c(-c3ccc(CC)cc3)c2)cc1.F[B-](F)(F)F [6jc66-2] | 1.42
